Laboratory results: PMC11436673 (Journal of Experimental Pharmacology, 2024)

Target: T1, human monoacylglycerol lipase (MGL) (Homo sapiens, UniProt Q99685)
T1 sequence (Q99685 1-303): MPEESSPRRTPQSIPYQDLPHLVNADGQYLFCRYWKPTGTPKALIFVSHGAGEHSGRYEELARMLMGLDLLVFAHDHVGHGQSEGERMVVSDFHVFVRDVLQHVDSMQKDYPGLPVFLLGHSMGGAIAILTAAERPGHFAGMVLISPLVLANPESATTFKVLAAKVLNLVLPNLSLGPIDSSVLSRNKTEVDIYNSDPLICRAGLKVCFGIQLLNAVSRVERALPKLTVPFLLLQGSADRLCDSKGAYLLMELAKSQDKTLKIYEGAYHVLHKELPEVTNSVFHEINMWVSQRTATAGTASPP
Format: biochemical

Compound `CC[C@H](CC[C@@H](C)[C@H]1CC[C@H]2[C@@H]3CC=C4C[C@@H](O)CC[C@]4(C)[C@H]3CC[C@]12C)C(C)C` [beta-sitosterol] has an IC50 of 19.5 µM.
